Holding throughout (type): cell-based
One experiment deals with Kollagenase MMP-1. Briefly: Gene expression of ageing marker MMP-1 in cultured monolayer fibroblasts after substance treatment and infrared irradiation. Particulars: for Expression der Kollagenase MMP-1 (result in words): Fibroblasten, Infrarot-Strahlen 760-1400 nm, after treatment. From the text: (§1) 1. In vitro Assays hinsichtlich der Expression typischer Altersmarker in kultivierten Fibroblasten nach Substanzgabe und Infrarotbestrahlung
(§2) Methode: Monolayer-Fibroblasten wurden 24 Stunden vor und 24 Stunden nach Infrarot-Bestrahlung mit Lipochroman (Dimethylmethoxy Chromanol, 0,005 Gew.-%), Taurin (2-Aminoethansulfonsäure 0,005 Gew.-%) und Kombinationen beider Substanzen behandelt. Im Folgenden wurde die Genexpression der zwei Hautalterungsmarker Kollagenase MMP-1, das hinsichtlich der Hautalterung wichtigste Kollagen abbauende Enzym, und des spezifischen Inhibitors der Kollagenase MMP-1, TIMP-1 (tissue inhibitor of metalloproteinase 1), untersucht. Die Genexpressionswerte wurden im Folgenden auf die Werte der jeweiligen unbehandelten Kontrolle relativiert. Als Kontrollen wurden Fibroblasten analysiert, die ausschließlich mit Infrarot bestrahlt wurden.

Experiment [1] deals with TIMP-1 (tissue inhibitor of metalloproteinase 1). In words: Gene expression of ageing marker TIMP-1 in cultured monolayer fibroblasts after substance treatment and infrared irradiation. Particulars: for Expression von TIMP-1 (result in words): Fibroblasten, Bestrahlung mit Infrarot-Strahlen, after treatment.
From the text: as §1, §2

The test system of a further experiment is MMP1 / TIMP-1. In words: MMP-1 / TIMP-1 expression ratio (collagen build-up/degradation balance) in fibroblasts after substance treatment and infrared irradiation. Particulars: Monolayer-Fibroblasten, mit Infrarot A bestrahlt, irradiated-only control 1,2.
From the text: as §1
[…] Im Folgenden wurde die Genexpression der zwei Hautalterungsmarker Kollagenase MMP-1, das hinsichtlich der Hautalterung wichtigste Kollagen abbauende Enzym, und des spezifischen Inhibitors der Kollagenase MMP-1, TIMP-1 (tissue inhibitor of metalloproteinase 1), untersucht. Die Genexpressionswerte wurden im Folgenden auf die Werte der jeweiligen unbehandelten Kontrolle relativiert. Als Kontrollen wurden Fibroblasten analysiert, die ausschließlich mit Infrarot bestrahlt wurden.
Entscheidend für die Balance des Auf- und Abbaus von Kollagen in der Dermis ist das Verhältnis zwischen MMP-1 und TIMP-1. Ist dieses Verhältnis größer als der Vergleichswert, so kann von einem vermehrten Abbau durch die Kollagenase ausgegangen werden, ist das Verhältnis kleiner, so wird der Abbau vermehrt verhindert und neues Kollagen kann synthetisiert werden.

The source of these data is patent publication EP2462919A2, “Synergistic active agent combination for protecting the skin from IR radiation” (priority 2010, dated 2012).

For `COc1cc2c(cc1O)CCC(C)(C)O2` [Lipochroman-6, 3,4-Dihydro-7-methoxy-2,2-dimethyl-2H-2 1-benzopyran-6-ol], the fold induction at 0.005 % in the experiment on Kollagenase MMP-1 (Fibroblast, light or radiation study, Monolayer-Fibroblasten, mit Infrarot A bestrahlt, 0,005 % Lipochroman-6, treated 24 h before and 24 h after irradiation, read-out: MMP-1 Regulierung mRNA (Gene Expression versus Sham control)) is 1.75; in experiment [1] (Fibroblast, light or radiation study, Monolayer-Fibroblasten, mit Infrarot A bestrahlt, 0,005 % Lipochroman-6, treated 24 h before and 24 h after irradiation, read-out: TIMP-1 Regulierung mRNA (Gene Expression versus Sham control)), 1.65. The “Expression der Kollagenase MMP-1 (result in words)” value in the experiment with Kollagenase MMP-1 is listed as “erhöhten Expressionswerten”. Also, in experiment [1], the “Expression von TIMP-1 (result in words)” value is “starken Expressionssteigerung”. For the same compound, the “MMP1 / TIMP-1 Ratio” value in the experiment with MMP1 / TIMP-1 (0,005 % Lipochroman-6) is 2,7.

For the compound `NCCS(=O)(=O)O` [Taurin, 2-Aminoethansulfonsäure], the fold induction at 0.05 % is 2.05 with Kollagenase MMP-1 (Fibroblast, light or radiation study, Monolayer-Fibroblasten, mit Infrarot A bestrahlt, 0,05 % Taurin, treated 24 h before and 24 h after irradiation, read-out: MMP-1 Regulierung mRNA (Gene Expression versus Sham control)); 1.1 in experiment [1] (Fibroblast, light or radiation study, Monolayer-Fibroblasten, mit Infrarot A bestrahlt, 0,05 % Taurin, treated 24 h before and 24 h after irradiation, read-out: TIMP-1 Regulierung mRNA (Gene Expression versus Sham control)). Further, the “Expression der Kollagenase MMP-1 (result in words)” value in the experiment with Kollagenase MMP-1 is listed as “erhöhten Expressionswerten”. Moreover, in experiment [1], the “Expression von TIMP-1 (result in words)” value is given as “leichten Steigerung der Expression”. Also, in the experiment with MMP1 / TIMP-1 (0,05 % Taurin), the “MMP1 / TIMP-1 Ratio” value is recorded as 1,6.
